“Also recorded” adds a separate entry of the source.
What was measured:
[1] = Blood lipids analysis after 5 days of oral administration; format: in vivo, female Sprague-Dawley rats; details: 50 μl orally for 5 days
Procedure: (§1) Female female Sprague-Dawley rats were used for all experiments. Rats were housed in a temperature-controlled room (22±1° C.) under a 12-h light (6:00-18:00)/12-h cycle, given free access to water, and fed an libitum on a standard chow unless otherwise stated for a high-fat diet experiment. All procedures using animals were approved by the local ethics committee and followed the guidelines for experiments in animals (European Economic Community Council Directive 86/609/EEC).
Blood was drawn in rats from the intra-orbital bullar plexus under anaesthesia and collected in ice-cold tubes. Serum was obtained by centrifugation at 3000 g for 15 min at 4° C. […] Plasma triglycerides was determined with an Sigma diagnostics kit. Plasma fatty acids were measured by NEFAC kit (Wako chemicals GmbH, Neuss, Germany). Plasma PYY (3-36) and leptin were measured with the PYY Enzyme Immunossay kit and leptin Enzyme Immunossay (Phoenix Pharmaceuticals, USA)

[2] = target: T1, Lipase and colipase, purified from human pancreatic gland (Homo sapiens, UniProt P04118+P16233); experiment: Determination of lipolysis by colipase/lipase (pH-stat, tributyrine emulsion with NaTDC); format: biochemical
T1 construct: Lipase, Purified from Human Pancreatic Gland; Colipase, Purified from Human Pancreatic Gland; from tissue; host or cells: human pancreatic gland
T1 sequence (P16233 17-465): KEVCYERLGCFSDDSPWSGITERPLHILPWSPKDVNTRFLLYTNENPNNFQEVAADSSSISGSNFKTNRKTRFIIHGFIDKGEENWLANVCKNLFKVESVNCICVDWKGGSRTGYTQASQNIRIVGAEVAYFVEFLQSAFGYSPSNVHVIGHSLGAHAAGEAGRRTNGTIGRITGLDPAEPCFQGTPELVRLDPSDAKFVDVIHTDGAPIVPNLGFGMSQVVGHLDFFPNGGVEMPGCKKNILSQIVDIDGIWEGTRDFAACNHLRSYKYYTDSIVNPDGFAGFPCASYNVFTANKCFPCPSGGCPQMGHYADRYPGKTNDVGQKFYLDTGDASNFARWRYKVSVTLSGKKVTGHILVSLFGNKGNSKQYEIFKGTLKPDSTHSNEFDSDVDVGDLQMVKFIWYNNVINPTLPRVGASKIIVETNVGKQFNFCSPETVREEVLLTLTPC
T1 sequence (P04118 23-112): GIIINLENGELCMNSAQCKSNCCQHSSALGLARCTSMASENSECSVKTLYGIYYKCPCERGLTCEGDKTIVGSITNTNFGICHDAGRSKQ
Text: Determination of Lipolysis by Colipase/Lipase
The most important enzyme in the gastro-intestinal tract being responsible for the hydrolysis of lipids/fats in the gastro-intestinal tract is lipase, pancreatic lipase, together with its protein cofactor colipase. These are two proteins, which are secreted from the pancreatic gland. […] The colipase binds to lipase in a molar 1:1 complex and then moves the complex to the triglyceride surface. In the binding between lipase and colipase hydrogen bonds are present, between arg38 of the colipase and ser343 of the lipase and from glu15 of the colipase and the asn241 of the lipase molecules. In the binding of colipase to the substrate (the lipids/fat) there are both hydrophobic bonds as well as ion-ion bonds present. By an isolated lack of colipase it has been shown that colipase has a decisive role for the lipolysis in the gastro-intestinal tract of humans. Pure lipase and colipase have been produced in accordance with the following.
Lipase, Purified from Human Pancreatic Gland
Colipase, Purified from Human Pancreatic Gland
0.5 ml of tributyrine is mixed with 15 ml of a buffer containing 1 mM CaCl2, 150 mM NaCl, 2 mM tris-maleate, pH 7.0 and 4 mM NaTDC (sodium taurodeoxycholate). An emulsion is obtained by continuous stirring. pH is titrated by means of a pH-state, where 0.1 N NaOH is added automatically to keep an constant pH. 10 μl of lipase is added from a stock solution containing 70 units of lipase/ml, followed by 10 μl of colipase from a stock solution containing 1 mg colipase/ml. An activity is registered which is determined to be 100%. An addition of an inhibitor is then made. A new assay is used for every concentration, prepared in the same way. The inhibition is registered as percentage of control. A dose-response plot is obtained for the compounds having an inhibiting ability.

[3] = Evaluation of food intake and body weight, oral gavage for 5 days; format: in vivo, female Sprague-Dawley rats
Procedure: as §1
For measurement of food consumption rats were individually housed in cage and given a high-fat diet for a week before the beginning of the experiment. […] Rat with as libitum access to high-fat food were orally given dimethylaminoethyl dodecyl ether (37.5 or 50 μl dissolved in 1% methycellulose) through a gastric gavage or 1% methyl cellulose at the onset of the dark cycle (18:00) and food intake was measured at 15 h following dimethylaminoethyl dodecyl ether administration from pre-weighed portions of food dispensed from were cage top. Cages were carefully monitored for evidence of food spillage or grinding.

[4] = Acute effect on blood lipids: single dose plus Intralipid in overnight-fasted rats; format: in vivo, female Sprague-Dawley rats; details: single dose 200 μl plus 1 ml Intralipid (200 mg); 0, 30, 60, 120 and 180 min
Procedure: Blood was drawn in rats from the intra-orbital bullar plexus under anaesthesia and collected in ice-cold tubes. Serum was obtained by centrifugation at 3000 g for 15 min at 4° C. For acute effect of dimethylaminoethyl dodecyl ether on blood lipids, overnight-fasted rats were given 200 μl dimethylaminoethyl dodecyl ether plus 1 ml (200 mg) Intralipids orally through a gastric gavage and blood collected at 0, 30, 60, 120 and 180 min. Plasma triglycerides was determined with an Sigma diagnostics kit. Plasma fatty acids were measured by NEFAC kit (Wako chemicals GmbH, Neuss, Germany). Plasma PYY (3-36) and leptin were measured with the PYY Enzyme Immunossay kit and leptin Enzyme Immunossay (Phoenix Pharmaceuticals, USA)

## CCCCCCCCCCCCOCCN(C)C [dimethylaminoethyl dodecyl ether]
[1]
  Serum (plasma) cholesterol level vs vehicle: no effect; also recorded: no difference
  Serum fatty acids level vs vehicle: decreased serum triglyceride and fatty acids, but this was not statistic significance; also recorded: decreased
  Serum triglyceride level vs vehicle: decreased serum triglyceride and fatty acids, but this was not statistic significance; also recorded: decreased
[2]; amount of inhibitor 0.97 μmol, control activity 0.313
  Activity Inhibitor: 0.237 µmol/min
[2]; amount of inhibitor 1.95 μmol, control activity 0.301
  Activity Inhibitor: 0.204 µmol/min
[2]; amount of inhibitor 3.89 μmol, control activity 0.308
  Activity Inhibitor: 0.127 µmol/min
[2]; amount of inhibitor 6.81 μmol, control activity 0.319
  Activity Inhibitor: 0.069 µmol/min
[2]; amount of inhibitor 9.73 μmol, control activity 0.327
  Activity Inhibitor: 0.033 µmol/min
[2]; amount of inhibitor 14.59 μmol, control activity 0.328
  Activity Inhibitor: 0.013 µmol/min
[2]; amount of inhibitor 19.46 μmol, control activity 0.332
  Activity Inhibitor: 0 µmol/min
[3]; rats fed high-fat diet, 25 μl orally
  Food intake vs vehicle: no food intake inhibition
[3]; rats fed high-fat diet, 37.5 μl by gastric gavage
  Food intake vs vehicle: a trend towards reduced food intake was observed, however this did not reach statistic significance
[3]; rats fed high-fat diet, 50 μl by gastric gavage, up to 5 days
  Food intake vs vehicle: highly significant reduction in food intake; also recorded: significantly inhibited
[3]; rats fed high-fat diet, 50 μl daily for 5 days
  Body weight vs non-treated group: decreased body weight; also recorded: significantly loss of body weight
[3]; rats fed low-fat diet, 37.5 and 50 μl, 5 testing days
  Food intake vs controls: failed to decrease food intake
[4]
  Serum (plasma) fatty acids vs Intralipid alone: significantly reduced; also recorded: decreased
  Serum (plasma) triglycerides vs Intralipid alone: significantly reduced

Source: US7425577B2, “Lipase-colipase inhibitor” (Forskarpatent 1 SYD AB, priority 2003, dated 2008)
